Test results: patent US8673856B2 (Anygen Co., Ltd., priority 2006, dated 2014)

Tested on: Sprague-Dawley male rats
Settings: rat, in vivo

Compound	50% withdrawal threshold, mechanical stimulus
CSCC[C@@H]1NC(=O)[C@H](CC(C)C)NC(=O)[C@H](CCCNC(=N)N)NC(=O)[C@H](CO)NC(=O)[C@@H]2CSSC[C@@H]3NC(=O)[C@H](CO)NC(=O)CNC(=O)[C@H]([C@@H](C)O)NC(=O)[C@H](CSSC[C@H](N)C(=O)N[C@@H](CCCCN)C(=O)NCC(=O)N[C@@H](CCCCN)C(=O)NCC(=O)N[C@@H](C)C(=O)N[C@@H](CCCCN)C(=O)N2)NC(=O)[C@H](CSSC[C@@H](C(N)=O)NC(=O)[C@H](CCCCN)NC(=O)CNC(=O)[C@H](CO)NC(=O)[C@H](CCCNC(=N)N)NC3=O)NC(=O)[C@H](CC(=O)O)NC(=O)[C@H](Cc2ccc(O)cc2)NC1=O [MVIIA, CKGKGAKCSRLMYDCCTGSCRSGKC-NH2]	increase in 50% withdrawal threshold
CC[C@H](C)[C@@H]1NC(=O)[C@H](CCCNC(=N)N)NC(=O)[C@H](CO)NC(=O)[C@@H]2CSSC[C@@H]3NC(=O)[C@H](CO)NC(=O)CNC(=O)[C@H]([C@@H](C)O)NC(=O)[C@H](CSSC[C@H](N)C(=O)N[C@@H](CCCCN)C(=O)NCC(=O)N[C@@H]([C@@H](C)O)C(=O)NCC(=O)N[C@@H](CCCCN)C(=O)N[C@@H](CO)C(=O)N2)NC(=O)[C@H](CSSC[C@@H](C(N)=O)NC(=O)[C@H](CCCCN)NC(=O)CNC(=O)[C@H](CO)NC(=O)[C@H](CCCNC(=N)N)NC3=O)NC(=O)[C@H](CC(N)=O)NC(=O)[C@H](Cc2ccc(O)cc2)NC(=O)[C@H](C)NC1=O [FVIA, CKGTGKSCSRIAYNCCTGSCRSGKC-NH2]	increase in 50% withdrawal threshold
